Data published in ChEMBL document CHEMBL6071165, “Design, synthesis and biological evaluation of plant-derived miliusol derivatives achieve TNBC profound regression in vivo” (Eur J Med Chem, 2024).
The source made the active and inactive calls. No cut-off for these calls is given here.

Tests used:
[1] = target: Eukaryotic translation initiation factor 3 subunit D (Homo sapiens) (UniProt O15371); assay: Induction of thermal stabilization of EIF3D in human MDA-MB-231 cells at 1 uM by CETSA analysis; format: cell-based
Sequence of Eukaryotic translation initiation factor 3 subunit D (Homo sapiens) (O15371 whole entry): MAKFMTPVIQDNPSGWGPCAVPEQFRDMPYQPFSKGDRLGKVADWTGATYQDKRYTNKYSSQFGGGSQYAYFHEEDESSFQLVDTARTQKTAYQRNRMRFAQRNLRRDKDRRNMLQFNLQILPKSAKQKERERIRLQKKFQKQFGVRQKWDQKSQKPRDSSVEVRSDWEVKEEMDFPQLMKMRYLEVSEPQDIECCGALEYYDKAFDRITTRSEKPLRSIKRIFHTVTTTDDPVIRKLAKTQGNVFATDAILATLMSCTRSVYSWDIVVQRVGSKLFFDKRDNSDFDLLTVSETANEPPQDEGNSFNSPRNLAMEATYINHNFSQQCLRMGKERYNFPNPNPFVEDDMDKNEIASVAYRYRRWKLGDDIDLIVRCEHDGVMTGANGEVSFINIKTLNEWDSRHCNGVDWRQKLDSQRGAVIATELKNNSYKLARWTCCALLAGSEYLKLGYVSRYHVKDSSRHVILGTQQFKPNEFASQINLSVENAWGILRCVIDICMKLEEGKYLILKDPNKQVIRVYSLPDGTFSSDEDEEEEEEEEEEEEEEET

[2] = Toxicity in female BALB/c mouse xenografted with human BT-549 cells assessed as effect on pathological changes in kidney at 5 to 20 mg/kg, sc by H and E staining based analysis; format: organism-based; conditions: in vivo, dose 5-20 mg/kg
BT-549 [3] = assay: Antiproliferative activity against human BT-549 cells xenografted in female BALB/c mouse model assessed as fold change in cleavage of caspase-3 level at 5 mg/kg administered subcutaneously incubated for 24 hrs by Western blot analysis (reference value: 1.00%); format: functional; conditions: route sc
[4] = Toxicity in female BALB/c mouse xenografted with human MDA-MB-231 cells assessed as effect on pathological changes in lung at 5 to 20 mg/kg, sc by H and E staining based analysis; format: organism-based; conditions: in vivo, dose 5-20 mg/kg
[5] = Selectivity ratio of IC50 for antiproliferative activity against human MCF-10A cells assessed as inhibition of cell proliferation incubated for 48 hrs by MTT assay to IC50 for antiproliferative activity against human BT-549 cells assessed as inhibition of cell proliferation incubated for 48 hrs by MTT assay; format: toxicity, cell-based; conditions: MCF-10A cells versus BT-549 cells, read-out: Ratio IC50
BT-549 [6] = assay: Induction of apoptosis in human BT-549 cells assessed as early apoptotic cells at 0.5 uM incubated for 24 hrs by Annexin V-PI staining based flow cytometric analysis (reference value: 0.78%); format: functional
BT-549 [7] = assay: Inhibition of glycolysis in human BT-549 cells assessed as reduction in glucose uptake at 0.5 to 2 uM incubated for 24 hrs followed by 2-NBDG staining based flow cytometric analysis; format: functional, cell-based; conditions: dose 0.5-2 µM
MDA-MB-231 [8] = assay: Antiproliferative activity against human MDA-MB-231 cells xenografted in female BALB/c mouse model assessed as fold change in upregulation of BIP protein level at 5 mg/kg administered subcutaneously incubated for 24 hrs by Western blot analysis (reference value: 1.00%); format: functional; conditions: route sc
[9] = Toxicity in female BALB/c mouse assessed as change in brain administered subcutaneously measured upto 16 days; format: tissue-based; conditions: in vivo, sc, 384 h, time < 16 day
[10] = Toxicity in female BALB/c mouse xenografted with human BT-549 cells assessed as effect on pathological changes in lung at 5 to 20 mg/kg, sc by H and E staining based analysis; format: organism-based; conditions: in vivo, dose 5-20 mg/kg
BT-549 [11] = assay: Inhibition of tumor sphere formation in human BT-549 cells at 1 uM incubated for 24 hrs by microscopic analysis; format: functional, cell-based
BT-549 [12] = assay: Induction of ER stress in human BT-549 cells assessed as activation of BIP protein level incubated for 24 hrs by Western blot analysis; format: functional, cell-based; conditions: dose 0.5-2 µM
MDA-MB-231 [13] = assay: Induction of apoptosis in human MDA-MB-231 cells assessed as upregulation of cleavage of caspase-9 expression at 0.5 to 2 uM incubated for 24 hrs by Western blot analysis; format: functional, cell-based; conditions: dose 0.5-2 µM
Mitochondrial membrane [14] = assay: Disruption of mitochondrial potential loss in human BT-549 cells assessed as increase in JC-1 monomers at 1 uM incubated for 24 hrs by JC-1 staining based flow cytometric analysis (Rvb =1.07%); format: cell membranes
BT-549 [15] = assay: Induction of apoptosis in human BT-549 cells assessed as upregulation of cleavage of PARP level at 0.5 to 2 uM incubated for 24 hrs by Western blot analysis; format: functional, cell-based; conditions: dose 0.5-2 µM
MDA-MB-231 [16] = assay: Antiproliferative activity against human MDA-MB-231 cells xenografted in female BALB/c mouse model assessed as fold change in cleavage of caspase-3 level at 20 mg/kg administered subcutaneously incubated for 24 hrs by Western blot analysis (reference value: 1.00%); format: functional; conditions: route sc
BT-549 [17] = assay: Antiproliferative activity against human BT-549 cells xenografted in female BALB/c mouse model assessed as as fold change in cleavage of caspase-3 level at 10 mg/kg administered subcutaneously incubated for 24 hrs by Western blot analysis (reference value: 1.00%); format: functional; conditions: route sc
MDA-MB-231 [18] = assay: Inhibition of colony formation in human MDA-MB-231 cells incubated for 7 days by Crystal violet staining based analysis; format: functional, cell-based; conditions: dose 0.5-2 µM, time 7.0 day
MDA-MB-231 [19] = assay: Antiproliferative activity against human MDA-MB-231 cells xenografted in female BALB/c mouse model assessed as fold change in upregulation of BAX protein level at 20 mg/kg administered subcutaneously incubated for 24 hrs by Western blot analysis (reference value: 1.00%); format: functional; conditions: route sc
BT-549 [20] = assay: Induction of apoptosis in human BT-549 cells assessed as late apoptotic cells at 1 uM incubated for 24 hrs by Annexin V-PI staining based flow cytometric analysis (reference value: 2.95%); format: functional
BT-549 [21] = assay: Inhibition of colony formation in human BT-549 cells incubated for 7 days by Crystal violet staining based analysis; format: functional, cell-based; conditions: dose 0.5-2 µM, time 7.0 day
MDA-MB-231 [22] = assay: Induction of apoptosis in human MDA-MB-231 cells assessed as early apoptotic cells at 1 uM incubated for 24 hrs by Annexin V-PI staining based flow cytometric analysis (reference value: 0.42%); format: functional
MDA-MB-231 [23] = assay: Induction of apoptosis in human MDA-MB-231 cells assessed as upregulation of cleavage of caspase-8 expression at 0.5 to 2 uM incubated for 24 hrs by Western blot analysis; format: functional, cell-based; conditions: dose 0.5-2 µM
[24] = Toxicity in female BALB/c mouse assessed as change in heart administered subcutaneously measured upto 16 days; format: tissue-based; conditions: in vivo, sc, 384 h, time < 16 day
[25] = Toxicity in female BALB/c mouse xenografted with human MDA-MB-231 cells assessed as effect on pathological changes in spleen at 5 to 20 mg/kg, sc by H and E staining based analysis; format: organism-based; conditions: in vivo, dose 5-20 mg/kg
Mitochondrial membrane [26] = assay: Disruption of mitochondrial potential loss in human MDA-MB-231 cells assessed as increase in JC-1 monomers at 1 uM incubated for 24 hrs by JC-1 staining based flow cytometric analysis (Rvb =1.68%); format: cell membranes
Mitochondrial membrane [27] = assay: Disruption of mitochondrial potential loss in human MDA-MB-231 cells assessed as decrease in JC-1 aggregates at 1 uM incubated for 24 hrs by JC-1 staining based flow cytometric analysis (Rvb =98.1%); format: cell membranes; parameters: scale not given: the % may be the effect or the level left
BT-549 [28] = assay: Antiproliferative activity against human BT-549 cells xenografted in female BALB/c mouse model assessed as fold change in downregulation of MMP-2 protein level at 10 mg/kg administered subcutaneously incubated for 24 hrs by Western blot analysis (reference value: 1.00%); format: functional; conditions: route sc
MDA-MB-231 [29] = assay: Inhibition of glycolysis in human MDA-MB-231 cells assessed as decrease in GLUT4 protein level at 0.5 to 2 uM incubated for 24 hrs by Western blot analysis; format: functional, cell-based; conditions: dose 0.5-2 µM
BT-549 [30] = assay: Induction of apoptosis in human BT-549 cells assessed as early apoptotic cells at 2 uM incubated for 24 hrs by Annexin V-PI staining based flow cytometric analysis (reference value: 0.78%); format: functional
BT-549 [31] = assay: Inhibition of glycolysis in human BT-549 cells assessed as decrease in PKM2 protein level at 0.5 to 2 uM incubated for 24 hrs by Western blot analysis; format: functional, cell-based; conditions: dose 0.5-2 µM
MDA-MB-231 [32] = assay: Antiproliferative activity against human MDA-MB-231 cells xenografted in female BALB/c mouse model assessed as increase in E-cadherin level at 5 to 20 mg/kg administered subcutaneously by immunohistochemical staining based microscopic analysis; format: functional, organism-based; conditions: dose 5-20 mg/kg, route sc

## CC(C)=CCC/C(C)=C/[C@H]1OC(=O)CC12C[C@H](OC(=O)Cc1ccc(NC(=O)/C=C/c3ccccc3)cc1)C=CC2=O (some centres not stated)
[1]
  Activity: Active
[2]
  Activity: Non-Toxic
BT-549 [3]
  fold change (FC): 1.64
[4]
  Activity: Non-Toxic
[5]
  selectivity ratio at 48 h: 72.7
BT-549 [6]
  Activity: 0.91%
BT-549 [7]
  inhibition: Active
MDA-MB-231 [8]
  fold change (FC): 2.18
[9]
  Activity: Non-Toxic
[10]
  Activity: Non-Toxic
BT-549 [11]
  inhibition: Active
BT-549 [12]
  Activity: Dose-Dependent Effect
MDA-MB-231 [13]
  Activity: Active
Mitochondrial membrane [14]
  Activity: 56.3%
BT-549 [15]
  Activity: Active
MDA-MB-231 [16]
  fold change (FC): 2.09
BT-549 [17]
  fold change (FC): 1.72
MDA-MB-231 [18]
  inhibition: Dose-Dependent Effect
MDA-MB-231 [19]
  fold change (FC): 1.82
BT-549 [20]
  Activity: 24.9%
BT-549 [21]
  inhibition: Dose-Dependent Effect
MDA-MB-231 [22]
  Activity: 0.97%
MDA-MB-231 [23]
  Activity: Active
[24]
  Activity: Non-Toxic
[25]
  Activity: Non-Toxic
Mitochondrial membrane [26]
  Activity: 42.6%
Mitochondrial membrane [27]
  Activity: 58.2%
BT-549 [28]
  fold change (FC): 0.75
MDA-MB-231 [29]
  inhibition: Active
BT-549 [30]
  Activity: 11.1%
BT-549 [31]
  inhibition: Active
MDA-MB-231 [32]
  Activity: Active
